This note sets out measurements from patent US11760744B2, “Fused ring compounds” (Genentech, Inc., priority 2018, dated 2023).

Test [1] deals with T1, K-Ras G12C (Homo sapiens, UniProt P01116, G12C). Kind of test: Western blot assay for in cell alkylation of K-Ras G12C (HCC1171 cells). The class given is cell-based. The arrangement: endogenous in cells; host or cells: HCC1171. The settings on record: 18 hours at 37° C., 7 point dose response. The procedure: Western Blot Assay for in Cell Alkylation of K-Ras G12C
HCC1171 cells were maintained in RPMI1640 supplemented with 10% FBS. Cells were plated in a 96-well plate at 20,000 cells/well and the following day compounds were added to the cells. After 18 hours at 37° C., cells were lysed in RIPA buffer (Sigma R0278) with 0.5% SDS and protease/phosphatase inhibitor cocktail. After through mixing to enable complete lysis, the lysates were cleared by centrifugation before 20 μl was transferred from each well and combined with loading buffer and reducing agent. After heating for 10 minutes at 95° C., 15 μl of each sample was loaded onto a 4-20% Tris-Glycine gel and electrophoresed at 110V for 165 minutes in SDS-PAGE running buffer. Gels were transferred to a nitrocellulose membrane, blocked for 1 hour and stained overnight at 4° C. with primary antibody against K-Ras (polyclonal Proteintech 12063-1-AP). The membrane was then washed thoroughly and counterstained with anti-rabbit IRDye 800CW (LI-COR 926-32211) for one hour at room temperature. After final washes, the membrane was imaged on a LI-COR Odyssey CLx at medium resolution. Alkylated K-Ras was visible by an electrophoretic shift from unmodified K-Ras. To quantify this affect, the LICOR software was used to draw a rectangle over alkylated and unalkylated bands for each well and measured the total fluorescent intensity (FI) in each of these bands. The following formula was then used to calculate % alkylation: FI(alkylated)/(FI(alkylated)+FI(unalkylated))*100 for each well.
A 7 point dose response curve was used to determine the IC50 for each compound. Cell alkylation data are presented below in Table 2.
Target sequence in this assay (P01116 1-188 isoform P01116-2 G12C): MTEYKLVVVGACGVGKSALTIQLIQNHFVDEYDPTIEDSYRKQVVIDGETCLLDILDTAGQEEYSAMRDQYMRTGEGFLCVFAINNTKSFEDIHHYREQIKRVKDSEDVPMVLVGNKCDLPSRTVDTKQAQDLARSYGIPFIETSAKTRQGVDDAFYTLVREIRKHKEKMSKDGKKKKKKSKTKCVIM

In test [2] the target is T1, K-Ras G12C. Kind of test: K-Ras G12C, SOS1, Raf RBD HTRF assay for inhibition of GTP exchange. It is filed as biochemical. The arrangement: K-Ras G12C (residues 2-188) and SOS1 (residues 564-1049) had N-terminal 6-His; made in house; host or cells: E. coli. The settings on record: 18 hours preincubation with K-Ras G12C at room temperature; SOS1-mediated GTP exchange. The procedure: K-Ras G12C, SOS1, Raf RBD Homogeneous Time Resolved Fluorescence (HTRF) Assay for Inhibition of GTP Exchange
After 18 hours at room temperature, the SOS1 GTP exchange factor (1.67 nM during exchange, 1.25 nM final) was added to initiate nucleotide exchange to GTP (200 μM during exchange, 150 μM final). The level of GTP exchange was assessed by addition of a Ras binding domain derived from C-Raf and the HTRF detection antibodies Tb-anti-FLAG and D2-anti-his (Cis-Bio) at 50 nM, 1 nM and 12.5 nM, respectively. After 2 hours, the ratio of 665 nm to 615 nm emission with 320 nm excitation was measured on an Envision plate reader (Perkin Elmer).
The final reaction volume was 20 μl in a ProxiPlate-384F Plus (Perkin Elmer), in buffer containing 20 mM HEPES, 150 mM NaCl, 1 mM MgCl2, 0.1% BSA, 0.03% Tween-20 and 1 mM DTT. […] HTRF data are presented below in Table 2.
Target sequence in this assay (P01116 2-188 isoform P01116-2 G12C): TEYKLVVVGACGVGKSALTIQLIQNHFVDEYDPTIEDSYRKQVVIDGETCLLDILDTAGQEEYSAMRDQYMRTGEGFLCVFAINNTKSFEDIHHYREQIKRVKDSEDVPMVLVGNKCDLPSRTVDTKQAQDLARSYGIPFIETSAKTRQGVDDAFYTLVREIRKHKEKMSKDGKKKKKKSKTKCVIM
(TR-FRET usually uses a lanthanide donor and a delayed reading to cut background.)

What is called EC50 is the concentration that produces a half-maximal response. A higher EC50 goes with lower potency in that assay. Usually IC50 stands for the point on the concentration scale where inhibition reaches its midpoint. `C#CC[C@H]1CN(c2nc(OC[C@@H]3CCCN3C)nc3c2C[C@@H](C)[C@H](c2cccc4c2CCC4)C3)CCN1C(=O)C=C` (single isomer, unassigned) [Example 40a]: at K-Ras G12C [1], the response was half-maximal at 100 nM (EC50). The same molecule gave an IC50 on K-Ras G12C [2] of less than 10 nM.

Take `C#CC[C@H]1CN(c2nc(OC[C@@H]3CCCN3C)nc3c2C[C@H](C)[C@@H](c2cccc4c2CCC4)C3)CCN1C(=O)C=C` (single isomer, unassigned) [Example 40b]: on K-Ras G12C [1], the EC50 is 1000 nM. The same molecule gave an IC50 against K-Ras G12C [2] of 560 nM.

Molecule `C#CC[C@@H]1CN(c2nc(OC[C@@H]3CCCN3C)nc3c2C[C@H](C)[C@@H](c2cccc4c2CCC4)C3)CCN1C(=O)C=C` (single isomer, unassigned) [Example 40c] yielded an EC50 at K-Ras G12C [1] of 1000 nM. The same molecule displayed an IC50 against K-Ras G12C [2] of 1200 nM.

`C#CC[C@@H]1CN(c2nc(OC[C@@H]3CCCN3C)nc3c2C[C@@H](C)[C@H](c2cccc4c2CCC4)C3)CCN1C(=O)C=C` (single isomer, unassigned) [Example 40d] yielded a concentration giving a half-maximal response (EC50) on K-Ras G12C [1] of 1000 nM. In addition, the concentration for half-maximal inhibition (IC50) against K-Ras G12C [2] was found to be 29 nM.

`C=CC(=O)N1CCN(c2nc(OC[C@@H]3CCCN3C)nc3c2C[C@H](C)[C@@H](c2nc(N)ccc2C(F)(F)F)C3)[C@@H](C)C1` (single isomer, unassigned) [Example 41a]: the EC50 at K-Ras G12C [1] is 880 nM. Further, the IC50 at K-Ras G12C [2] was 500 nM.

Consider `C=CC(=O)N1CCN(c2ncnc3c2C[C@@H](C)[C@H](c2nc(N)ccc2C(F)(F)F)C3)CC1` (single isomer, unassigned) [Example 42b], for which the EC50 on K-Ras G12C [1] was found to be 360 nM. The IC50 on K-Ras G12C [2] was 67 nM.

In the case of `C=CC(=O)N1CCN(c2ncnc3c2CC[C@@H](c2cncc4ccccc24)C3)CC1` (single isomer, unassigned) [Example 44a], the EC50 on K-Ras G12C [1] came to 1000 nM. Moreover, the IC50 against K-Ras G12C [2] was more than 50000 nM.

Consider `C=CC(=O)N1CCN(c2ncnc3c2CC[C@H](c2cncc4ccccc24)C3)CC1` (single isomer, unassigned) [Example 44b], for which a half-maximal effect at K-Ras G12C [1] (EC50) was put at 1000 nM. For the same molecule, the IC50 against K-Ras G12C [2] is 8700 nM.

In turn, `C=CC(=O)N1CCN(c2ncnc3c2CC[C@H](c2nc(N)ccc2C(F)(F)F)C3)CC1` (single isomer, unassigned) [Example 46b] came in with an EC50 on K-Ras G12C [1] of 970 nM. Besides, at K-Ras G12C [2], half-maximal inhibition (IC50) required 230 nM.

On to `C=C(F)C(=O)N1CCN(c2nc(OC[C@@H]3CCCN3C)nc3c2CCC(c2cccc4ccccc24)C3)CC1CC#N` (single isomer, unassigned) [Example 47a], for which, on K-Ras G12C [1], a half-maximal response (EC50) required 530 nM. Besides, on K-Ras G12C [2], inhibition was half-maximal at 150 nM (IC50).

For the molecule `C=C(F)C(=O)N1CCN(c2nc(OC[C@@H]3CCCN3C)nc3c2CCC(c2cccc4ccccc24)C3)CC1CC#N` (single isomer, unassigned) [Example 47c], on K-Ras G12C [1], a half-maximal effect (EC50) was put at 450 nM. The molecule also registered an IC50 on K-Ras G12C [2] of 130 nM.

`C=C(F)C(=O)N1CCN(c2nc(OC[C@@H]3CCCN3C)nc3c2CCC(c2cccc4ccccc24)C3)C[C@@H]1CC#N` (single isomer, unassigned) [Example 47d] registered an EC50 on K-Ras G12C [1] of 30 nM. The molecule further showed an IC50 on K-Ras G12C [2] of less than 10 nM.

As for `C=CC(=O)N1CCN(c2nc(OC[C@@H]3COC(=O)N3C)nc3c2CC[C@H](c2cc(O)cc4ccccc24)C3)[C@@H](C)C1` (single isomer, unassigned) [Example 57c], on K-Ras G12C [1], the EC50 was determined as 830 nM. At K-Ras G12C [2], this molecule yielded an IC50 of 53 nM.

In turn, `C=CC(=O)N1CCN(c2nc(OC[C@H]3COC(=O)N3C)nc3c2CC[C@H](c2cc(O)cc4ccccc24)C3)[C@@H](C)C1` (single isomer, unassigned) [Example 57d] came in with an EC50 at K-Ras G12C [1] of 880 nM. Also, the midpoint of inhibition at K-Ras G12C [2], the IC50, lay at 45 nM.

`C=CC(=O)N1CCN(c2nc(OC[C@@H]3CCCN3C)nc3c2CC[C@H](c2cc(O)cc4ccccc24)C3)C[C@@H]1CC#N` (single isomer, unassigned) [Example 58b] showed an EC50 at K-Ras G12C [1] of 1900 nM. Also, 130 nM corresponded to half-maximal inhibition against K-Ras G12C [2] (IC50).

Molecule `C=CC(=O)N1CCN(c2nc(OC[C@@H]3CCCN3C)nc3c2CC[C@H](c2cc(O)cc4ccccc24)C3)C[C@H]1CC#N` (single isomer, unassigned) [Example 58c] came in with an EC50 at K-Ras G12C [1] of 340 nM. The molecule also returned an IC50 against K-Ras G12C [2] of 29 nM.

With `C=CC(=O)N1CCN(c2nc(OC[C@@H]3CCCN3C)nc3c2CC[C@@H](c2cc(O)cc4ccccc24)C3)C[C@@H]1CC#N` (single isomer, unassigned) [Example 58d], the EC50 on K-Ras G12C [1] stood at 6.3 nM. In addition, the IC50 at K-Ras G12C [2] worked out at 24 nM.

For the molecule `C=CC(=O)N1CCN(c2nc(OC[C@@H]3CCCN3C)nc3c2CC[C@@H](c2cc(O)cc4ccccc24)C3)C[C@H]1CC#N` (single isomer, unassigned) [Example 58e], the EC50 on K-Ras G12C [1] worked out at 110 nM. Further, the IC50 at K-Ras G12C [2] was 29 nM.

At K-Ras G12C [1], `C=C(F)C(=O)N1CCN(c2nc(OC[C@@H]3CCCN3C)nc3c2CC[C@H](c2cc(O)cc4ccccc24)C3)C[C@H]1CC#N` (single isomer, unassigned) [Example 61b] yielded an EC50 of 2800 nM. Besides, 640 nM corresponded to half-maximal inhibition at K-Ras G12C [2] (IC50).

As to `C=C(F)C(=O)N1CCN(c2nc(OC[C@@H]3CCCN3C)nc3c2CC[C@H](c2cc(O)cc4ccccc24)C3)C[C@@H]1CC#N` (single isomer, unassigned) [Example 61c], at K-Ras G12C [1], the EC50 was 1800 nM. The IC50 against K-Ras G12C [2] worked out at 83 nM.

`C=C(F)C(=O)N1CCN(c2nc(OC[C@@H]3CCCN3C)nc3c2CC[C@@H](c2cc(O)cc4ccccc24)C3)C[C@H]1CC#N` (single isomer, unassigned) [Example 61d] displayed an EC50 at K-Ras G12C [1] of 11 nM. Besides, on K-Ras G12C [2], the IC50 is 28 nM.

The molecule `C=C(F)C(=O)N1CCN(c2nc(OC[C@@H]3CCCN3C)nc3c2CC[C@@H](c2cc(O)cc4ccccc24)C3)C[C@@H]1CC#N` (single isomer, unassigned) [Example 61e] yielded an EC50 on K-Ras G12C [1] of 1500 nM. This molecule displayed an IC50 on K-Ras G12C [2] of 90 nM.

For `CN1CCC[C@H]1COc1nc2c(c(N3CCN(C(=O)/C=C/CF)[C@H](CC#N)C3)n1)CC[C@H](c1cc(O)cc3ccccc13)C2` (single isomer, unassigned) [Example 62b], at K-Ras G12C [1], the EC50 worked out at 2900 nM. This molecule also had an IC50 against K-Ras G12C [2] of 180 nM.

As to `CN1CCC[C@H]1COc1nc2c(c(N3CCN(C(=O)/C=C/CF)[C@@H](CC#N)C3)n1)CC[C@H](c1cc(O)cc3ccccc13)C2` (single isomer, unassigned) [Example 62c], on K-Ras G12C [1], the EC50 came to 1000 nM. In addition, the IC50 on K-Ras G12C [2] amounted to 73 nM.

`CN1CCC[C@H]1COc1nc2c(c(N3CCN(C(=O)/C=C/CF)[C@H](CC#N)C3)n1)CCC(c1cc(O)cc3ccccc13)C2` (single isomer, unassigned) [Example 62d]: a half-maximal response at K-Ras G12C [1] (EC50) required 6.4 nM. For the same molecule, the IC50 against K-Ras G12C [2] was less than 10 nM.

At K-Ras G12C [1], `CN1CCC[C@H]1COc1nc2c(c(N3CCN(C(=O)/C=C/CF)[C@@H](CC#N)C3)n1)CC[C@@H](c1cc(O)cc3ccccc13)C2` (single isomer, unassigned) [Example 62e] had an EC50 of 450 nM. At K-Ras G12C [2], it took 660 nM to reach half-maximal inhibition (IC50).

`C=CC(=O)N1CCC(C#N)(c2nc(OC[C@@H]3CCCN3C)nc3c2CCC(c2cc(O)cc4ccccc24)C3)CC1` (stereo partly drawn) [Example 7a, 4-[7-(3-hydroxy-1-naphthyl)-2-[[(2S)-1-methylpyrrolidin-2-yl]methoxy]-5,6,7,8-tetrahydroquinazolin-4-yl]-1-prop-2-enoyl-piperidine-4-carbonitrile]: a half-maximal response at K-Ras G12C [1] (EC50) required 2500 nM. Also, the IC50 at K-Ras G12C [2] was 87 nM.

On K-Ras G12C [1], `C=CC(=O)N1CCN(c2nc(OC[C@@H]3CCCN3C)nc3c2CC(C)C(c2c(C)ccc4[nH]ncc24)C3)CC1` (stereo partly drawn) [Example 18a, 1-(4-(6-methyl-7-(5-methyl-1H-indazol-4-yl)-2-(((S)-1-methylpyrrolidin-2-yl)methoxy)-5,6,7,8-tetrahydroquinazolin-4-yl)piperazin-1-yl)prop-2-en-1-one] returned an EC50 of 280 nM. The IC50 against K-Ras G12C [2] turned out to be 24 nM.

Molecule `C=CC(=O)N1CCN(c2nc(OC[C@@H]3CCCN3C)nc3c2CCC2(CCCCC2)C3)CC1` [Example 25a, (S)-1-(4-(2′-((1-methylpyrrolidin-2-yl)methoxy)-5′,8′-dihydro-6′H-spiro[cyclohexane-1,7′-quinazolin]-4′-yl)piperazin-1-yl)prop-2-en-1-one] registered an EC50 at K-Ras G12C [1] of 1000 nM. On K-Ras G12C [2], this molecule yielded an IC50 of 5400 nM.
